Data as given in PMC7044277 (Nature Communications, 2020).
Several values for one entry are separate records, joined by “and”; a condition that tells them apart may be missing. Identical values can stand only once.

Experiments:
DRD2 F1103.28L [1] = target: T1, DRD2 F1103.28L (Homo sapiens, UniProt P14416, F110L); assay: Gαi/o-mediated cAMP inhibition (GloSensor), mutant; assay type: cell-based
T1 construct: expressed in transfected cells; host or cells: HEK293T (ATCC CRL-11268)

[2] = target: DRD2 (D2 long receptor) wild-type (Homo sapiens, UniProt P14416); assay: Radioligand competition binding, [3H]-N-methylspiperone, HEK293T membranes; conditions: DRD2; [3H]-methylspiperone (0.8-1.0 nM); read-out: Ki
DRD3 = DRD3 (Homo sapiens, UniProt P35462); assay: β-arrestin2 recruitment (Tango); assay type: cell-based; conditions: DRD3, Tango
DRD3 wild-type = DRD3 wild-type (Homo sapiens, UniProt P35462); assay: Radioligand competition binding, [3H]-N-methylspiperone; conditions: DRD3 wild-type; read-out: pKi ± SEM (converted)
DRD2 F1103.28L [3] = target: T1, DRD2 F1103.28L; assay: β-arrestin2 recruitment (Tango), mutant; assay type: cell-based
DRD2 F1103.28A [4] = target: T2, DRD2 F1103.28A (Homo sapiens, UniProt P14416, F110A); assay type: binding; design: expressed in transfected cells; host or cells: HEK293T (ATCC CRL-11268)
DRD4 (D4.4 variant) [5] = target: T3, DRD4 (D4.4 variant) (Homo sapiens, UniProt P21917); assay: Gαi/o-mediated cAMP inhibition (GloSensor); assay type: cell-based; conditions: DRD4; agonist, cAMP inhibition; read-out: EC50 ± SEM
T3 sequence (P21917 1-419): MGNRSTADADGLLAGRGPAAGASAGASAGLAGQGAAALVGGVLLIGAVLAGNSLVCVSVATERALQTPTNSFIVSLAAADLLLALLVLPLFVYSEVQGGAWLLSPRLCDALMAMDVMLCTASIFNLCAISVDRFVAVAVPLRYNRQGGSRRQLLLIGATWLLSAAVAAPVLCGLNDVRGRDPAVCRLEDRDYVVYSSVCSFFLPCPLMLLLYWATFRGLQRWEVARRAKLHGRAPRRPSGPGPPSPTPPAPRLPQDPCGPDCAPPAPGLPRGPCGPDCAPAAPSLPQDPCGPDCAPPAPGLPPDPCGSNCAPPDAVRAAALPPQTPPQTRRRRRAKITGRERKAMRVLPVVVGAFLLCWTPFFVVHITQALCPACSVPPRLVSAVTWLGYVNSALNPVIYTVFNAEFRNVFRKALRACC

DRD2 (D2 long receptor) [6] = target: T4, DRD2 (D2 long receptor) (Homo sapiens, UniProt P14416); assay: Gαi/o-mediated cAMP inhibition (GloSensor split-luciferase cAMP reporter), HEK293T; assay type: cell-based; conditions: for response, Fig_S11d dose-response source data: replicate values;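 for all read-outs here: compounds applied 15 min at room temperature, then luciferin plus 400 nM isoproterenol to raise cAMP through endogenous β2-adrenergic receptors, luminescence read 15 min later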
DRD2 F1103.28A [7] = target: T2, DRD2 F1103.28A; assay: Gαi/o-mediated cAMP inhibition (GloSensor), mutant; assay type: cell-based; design: expressed in transfected cells; host or cells: HEK293T (ATCC CRL-11268)
DRD4 (D4.4 variant) [8] = target: T3, DRD4 (D4.4 variant); assay: β-arrestin2 recruitment (Tango); assay type: cell-based; conditions: DRD4, Tango
[9] = target: T5, DRD4 (D4.4 variant) wild-type (Homo sapiens, UniProt P21917); assay: Radioligand competition binding, [3H]-N-methylspiperone; conditions: DRD4; [3H]-methylspiperone (0.8-1.0 nM); read-out: Ki
T5 sequence (P21917 1-419): T3 sequence (P21917 1-419)

DRD2 F1103.28A [10] = target: T2, DRD2 F1103.28A; assay: β-arrestin2 recruitment (Tango), mutant; assay type: cell-based; design: expressed in transfected cells; host or cells: HEK293T (ATCC CRL-11268)
DRD3 F1063.28A [11] = target: T6, DRD3 F1063.28A (Homo sapiens, UniProt P35462, F106A); assay: biochemical; assay type: binding
DRD3 F1063.28A [12] = target: T6, DRD3 F1063.28A; assay: cell-based; assay type: cell-based
DRD2 (D2 long receptor) [13] = target: T4, DRD2 (D2 long receptor); assay: β-arrestin2 recruitment (Tango), HTLA cells; assay type: cell-based; conditions: for response, Fig_S11e dose-response source data: replicate values
[14] = read-out: Emax relative to quinpirole response

T4 sequence (P14416 whole entry): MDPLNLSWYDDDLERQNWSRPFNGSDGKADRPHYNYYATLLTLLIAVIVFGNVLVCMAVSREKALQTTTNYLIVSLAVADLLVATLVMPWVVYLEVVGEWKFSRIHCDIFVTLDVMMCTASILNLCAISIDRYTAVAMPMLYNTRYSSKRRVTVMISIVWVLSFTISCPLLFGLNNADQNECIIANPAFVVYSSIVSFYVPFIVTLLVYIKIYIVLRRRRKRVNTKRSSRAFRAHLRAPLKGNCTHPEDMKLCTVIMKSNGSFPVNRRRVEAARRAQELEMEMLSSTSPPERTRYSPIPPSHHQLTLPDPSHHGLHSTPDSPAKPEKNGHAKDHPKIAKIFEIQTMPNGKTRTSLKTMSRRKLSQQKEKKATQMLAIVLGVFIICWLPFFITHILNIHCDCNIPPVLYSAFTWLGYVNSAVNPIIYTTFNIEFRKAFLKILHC
T2 sequence (P14416 whole entry F110A): as the sequence (P14416 whole entry) above, with F110A counted along it
T1 sequence (P14416 whole entry F110L): as the sequence (P14416 whole entry) above, with F110L counted along it
T6 sequence (P35462 whole entry F106A): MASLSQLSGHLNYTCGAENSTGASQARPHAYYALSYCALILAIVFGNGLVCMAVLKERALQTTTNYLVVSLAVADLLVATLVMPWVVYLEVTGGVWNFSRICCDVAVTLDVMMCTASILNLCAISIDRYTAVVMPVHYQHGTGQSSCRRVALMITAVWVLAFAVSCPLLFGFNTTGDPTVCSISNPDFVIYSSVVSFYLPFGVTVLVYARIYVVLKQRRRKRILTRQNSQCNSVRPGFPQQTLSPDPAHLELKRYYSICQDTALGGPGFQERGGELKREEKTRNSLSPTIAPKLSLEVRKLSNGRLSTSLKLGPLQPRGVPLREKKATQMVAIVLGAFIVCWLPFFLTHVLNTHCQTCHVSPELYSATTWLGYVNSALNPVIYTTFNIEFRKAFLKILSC
DRD3, sequence (P35462 whole entry): as the sequence (P35462 whole entry F106A) above, with A106F counted along it
DRD2 (D2 long receptor) wild-type, sequence (P14416 whole entry): as the sequence (P14416 whole entry) above
DRD3 wild-type, sequence (P35462 whole entry): as the sequence (P35462 whole entry F106A) above, with A106F counted along it

Structure (SMILES): CCOc1cccc2cc(C(C)NCC3(O)CCCCCCC3)oc12 (centres unmarked) [O4LE8]
- EC50 (DRD2 F1103.28L [1]; DRD2 F1103.28L (b138 head prints DRD2 F1063.28L)): 5.14 ± 1.34 nM
- Emax (DRD2 F1103.28L [1]; read-out: Emax relative to quinpirole response, DRD2 F1103.28L): 79.4%
- Ki [2]: 1440 nM
- EC50 (DRD3; read-out: EC50 ± SEM): 2570 ± 331 nM
- Emax (DRD3; [14]): 12.6%
- Ki (DRD3 wild-type): 126 nM
- EC50 (DRD2 F1103.28L [3]): 83.2 nM
- Emax (DRD2 F1103.28L [3]; [14]): 12.9%
- Ki (DRD2 F1103.28A [4]; DRD2 F1103.28A, read-out: pKi ± SEM (converted)): 174 nM
- affinity increase (binding enhanced), mutant vs wild type (DRD2 F1103.28A [4]; DRD2 Phe110^3.28Ala vs wild-type DRD2): 8.47 fold
- EC50 (DRD4 (D4.4 variant) [5]): > 10 µM
- EC50 (DRD2 (D2 long receptor) [6]; DRD2, agonist, Gαi/o-mediated cAMP inhibition, read-out: EC50 ± SEM): 25.1 ± 4.15 nM
- response, Fig_S11d dose-response source data (DRD2 (D2 long receptor) [6]; Log[Drug] -6.52): 81.714
- response, Fig_S11d dose-response source data (DRD2 (D2 long receptor) [6]; Log[Drug] -7): 60.3486 and 66.6804 and 72.7008 and 60.4684 and 68.6286 and 77.0139 and 66.1563 and 80.9789 and 74.7009
- response, Fig_S11d dose-response source data (DRD2 (D2 long receptor) [6]; Log[Drug] -7.52): 64.1546 and 42.5815 and 54.9164 and 48.6839 and 50.89 and 54.6944 and 53.231 and 58.2356 and 61.6484
- response, Fig_S11d dose-response source data (DRD2 (D2 long receptor) [6]; Log[Drug] -8): 30.3505 and 38.7582 and 38.4468 and 27.6925 and 25.4414 and 37.7886 and 33.6203 and 36.6384 and 38.4211
- response, Fig_S11d dose-response source data (DRD2 (D2 long receptor) [6]; Log[Drug] -8.52): 18.8806 and 26.4753 and 29.6239 and 29.8085 and 24.7211 and 36.5506 and 30.7552 and 20.988 and 25.8907
- response, Fig_S11d dose-response source data (DRD2 (D2 long receptor) [6]; Log[Drug] -9): 10.6977 and 6.477 and 22.1503 and -4.7682 and 5.553 and 28.1427 and 15.0029 and 22.6689 and 22.3633
- response, Fig_S11d dose-response source data (DRD2 (D2 long receptor) [6]; Log[Drug] -9.52): 13.483 and 14.7978 and 22.2541 and 0.3305 and -1.0989 and 21.5583 and 10.5969 and 17.6134 and 23.573
- response, Fig_S11d dose-response source data (DRD2 (D2 long receptor) [6]; Log[Drug] -10): 5.075 and 27.3403 and 11.8049 and -5.4661 and -6.0063 and 15.8293 and -4.1493 and 12.6598 and 11.3991
- response, Fig_S11d dose-response source data (DRD2 (D2 long receptor) [6]; Log[Drug] -10.52): 26.6829 and 14.6767 and 28.6205 and 3.955 and -0.615 and 13.1617 and 5.592 and 6.484 and 18.0973
- response, Fig_S11d dose-response source data (DRD2 (D2 long receptor) [6]; Log[Drug] -11): 14.0885 and 21.7351 and 14.8497 and 2.548 and 0.2179 and 18.1479 and 4.5736 and 10.5841 and 33.4421
- response, Fig_S11d dose-response source data (DRD2 (D2 long receptor) [6]; Log[Drug] -11.52): 14.3134 and 21.1815 and -2.3983 and 1.163 and 10.5955 and 20.3089 and -4.0602 and -1.4624 and 2.396
- response, Fig_S11d dose-response source data (DRD2 (D2 long receptor) [6]; Log[Drug] -12): -12.3977 and -4.8203 and -3.3671 and -5.6011 and 0.2067 and 18.6656 and 6.267 and -13.7 and 1.135
- Emax (DRD2 (D2 long receptor) [6]; HEK-293T, read-out: Emax relative to quinpirole response, DRD2, cAMP inhibition): 93.5%
- EC50 (DRD2 F1103.28A [7]): > 10 µM
- EC50 (DRD4 (D4.4 variant) [8]; read-out: EC50 ± SEM): 7.72 ± 3.42 µM
- Emax (DRD4 (D4.4 variant) [8]; [14]): 22.3%
- Ki [9]: 3.47 µM
- EC50 (DRD2 F1103.28A [10]): > 10 µM
- Ki (DRD3 F1063.28A [11]): 209 nM
- affinity decreased, mutant vs wild type (DRD3 F1063.28A [11]; DRD3 Phe106^3.28Ala vs wild-type DRD3): 1.62 fold
- EC50 (DRD3 F1063.28A [12]): > 10 µM
- EC50 (DRD2 (D2 long receptor) [13]; DRD2, β-arrestin2 recruitment (Tango), read-out: EC50 ± SEM): 958 ± 554 nM
- response, Fig_S11e dose-response source data (DRD2 (D2 long receptor) [13]; Log[Drug] -6.52): 25.1709
- response, Fig_S11e dose-response source data (DRD2 (D2 long receptor) [13]; Log[Drug] -7): 14.6742 and 15.2038 and 14.2094 and 15.768 and 13.8247 and 10.963 and 9.8559 and 9.763 and 11.4407
- response, Fig_S11e dose-response source data (DRD2 (D2 long receptor) [13]; Log[Drug] -7.52): 7.064 and 7.803 and 7.822 and 6.018 and 6.959 and 8.6294 and 5.868 and 6.2292 and 7.2281
- response, Fig_S11e dose-response source data (DRD2 (D2 long receptor) [13]; Log[Drug] -8): 5.7468 and 5.978 and 6.62 and 5.455 and 5.722 and 6.021 and 5.454 and 5.678 and 6.204
- response, Fig_S11e dose-response source data (DRD2 (D2 long receptor) [13]; Log[Drug] -8.52): 5.4648 and 5.687 and 6.826 and 4.883 and 5.2931 and 6.0726 and 5.125 and 5.623 and 6.271
- response, Fig_S11e dose-response source data (DRD2 (D2 long receptor) [13]; Log[Drug] -9): 5.367 and 5.481 and 6.509 and 5.152 and 5.102 and 5.412 and 5.069 and 5.184 and 5.586
- response, Fig_S11e dose-response source data (DRD2 (D2 long receptor) [13]; Log[Drug] -9.52): 5.23 and 5.307 and 5.645 and 4.9908 and 4.966 and 5.083 and 5.0713 and 4.923 and 5.288
- response, Fig_S11e dose-response source data (DRD2 (D2 long receptor) [13]; Log[Drug] -10): 5.15 and 5.211 and 5.175 and 4.9 and 4.98 and 4.8838 and 4.832 and 4.97 and 4.906
- response, Fig_S11e dose-response source data (DRD2 (D2 long receptor) [13]; Log[Drug] -10.52): 5.0534 and 4.953 and 5.08 and 4.774 (2×) and 4.9 and 4.962 and 4.816 and 4.832
- response, Fig_S11e dose-response source data (DRD2 (D2 long receptor) [13]; Log[Drug] -11): 5.0347 and 4.933 and 5.013 and 4.706 and 4.819 and 4.763 and 4.774 (2×) and 4.732
- response, Fig_S11e dose-response source data (DRD2 (D2 long receptor) [13]; Log[Drug] -11.52): 4.924 and 5.294 and 5.1115 and 4.785 and 5.303 and 4.761 and 4.741 and 4.765 and 4.928
- response, Fig_S11e dose-response source data (DRD2 (D2 long receptor) [13]; Log[Drug] -12): 4.887 and 4.896 and 4.876 and 4.741 and 5.073 and 4.844 and 4.843 and 5.092 and 4.723
- Emax (DRD2 (D2 long receptor) [13]; HTLA, read-out: Emax relative to quinpirole response, DRD2, Tango): 54%
